The text below walks through data of article PMC11839907, “Deciphering the tight metabolite‐level regulation of glucose‐1‐phosphate adenylyltransferase (GlgC) for glycogen synthesis in cyanobacteria” (The Febs Journal, 2024).

Read-outs that look alike come from different tables or passages of the source.

Experiment [1] concerns the target T1, GlgC (Synechocystis sp. PCC 6803, UniProt P52415).
T1 construct: shorter variant lacking first 10 residues of P52414, starts VKRVLAIILGG (primer 3); N-terminal His-tag (pET28a), E. coli Rosetta-gami (DE3); active as tetramer
T1 sequence (P52415 11-439): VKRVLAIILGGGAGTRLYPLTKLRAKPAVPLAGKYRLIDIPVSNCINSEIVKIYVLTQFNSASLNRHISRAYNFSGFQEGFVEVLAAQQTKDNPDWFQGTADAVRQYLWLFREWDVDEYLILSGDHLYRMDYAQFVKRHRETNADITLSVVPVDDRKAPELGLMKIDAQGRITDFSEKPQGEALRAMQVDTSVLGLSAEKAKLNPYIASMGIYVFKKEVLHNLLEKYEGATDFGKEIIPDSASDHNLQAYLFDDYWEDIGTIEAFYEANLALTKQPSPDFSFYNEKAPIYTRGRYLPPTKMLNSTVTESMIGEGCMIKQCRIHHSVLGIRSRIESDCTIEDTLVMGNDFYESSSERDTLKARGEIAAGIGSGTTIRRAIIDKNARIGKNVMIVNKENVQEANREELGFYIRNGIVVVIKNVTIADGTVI
The experiment in a line: continuous GlgC-GlgA1 / pyruvate kinase / LDH coupled assay, A340. The class given is biochemical.

In experiment [2] the target is T1, GlgC. The description is as above. The class given is biochemical. As to conditions: read-out: 3-PGA (mM) / 0.00.

On to `O=C(O)[C@H](O)COP(=O)(O)O` [3-PGA], for which, on GlgC [1], the midpoint of the response, the EC50, lay at 0.43 mM.

For the compound `O=P(O)(O)OC[C@H]1OC(O)(CO)[C@@H](O)[C@@H]1O` (stereo partly drawn) [Fru-6P], the 50% effective concentration (EC50) (as a rule, the concentration at which the effect is half-maximal) at GlgC [1] (activator, no 3-PGA, 0.25 mM Glc-1P, 2 mM ATP, 12 mM MgCl2, pH 8.0, 30 °C) was 2.3 mM.

As for `O=P(O)(O)O` [Pi], the IC50 at GlgC [2] stood at 0.42 mM.
